Laboratory results as given in PubChem BioAssay AID651861 (The Scripps Research Institute Molecular Screening Center, 2012).

How the values were obtained:
Test in all cases: binding mode on PAD1, PAD2, PAD3, biochemical, colorimetric, substrate dialysis, late-stage follow-up (AID 651861); call rule not given here
[1] = target: Protein-arginine deiminase type-2 (Homo sapiens) (UniProt Q9Y2J8); conditions: recombinant PAD1-3, post-dialysis BAEE citrulline colorimetric; PAD2; at 100 µM; active compounds read low
Sequence of Protein-arginine deiminase type-2 (Homo sapiens) (Q9Y2J8 whole entry, looked up): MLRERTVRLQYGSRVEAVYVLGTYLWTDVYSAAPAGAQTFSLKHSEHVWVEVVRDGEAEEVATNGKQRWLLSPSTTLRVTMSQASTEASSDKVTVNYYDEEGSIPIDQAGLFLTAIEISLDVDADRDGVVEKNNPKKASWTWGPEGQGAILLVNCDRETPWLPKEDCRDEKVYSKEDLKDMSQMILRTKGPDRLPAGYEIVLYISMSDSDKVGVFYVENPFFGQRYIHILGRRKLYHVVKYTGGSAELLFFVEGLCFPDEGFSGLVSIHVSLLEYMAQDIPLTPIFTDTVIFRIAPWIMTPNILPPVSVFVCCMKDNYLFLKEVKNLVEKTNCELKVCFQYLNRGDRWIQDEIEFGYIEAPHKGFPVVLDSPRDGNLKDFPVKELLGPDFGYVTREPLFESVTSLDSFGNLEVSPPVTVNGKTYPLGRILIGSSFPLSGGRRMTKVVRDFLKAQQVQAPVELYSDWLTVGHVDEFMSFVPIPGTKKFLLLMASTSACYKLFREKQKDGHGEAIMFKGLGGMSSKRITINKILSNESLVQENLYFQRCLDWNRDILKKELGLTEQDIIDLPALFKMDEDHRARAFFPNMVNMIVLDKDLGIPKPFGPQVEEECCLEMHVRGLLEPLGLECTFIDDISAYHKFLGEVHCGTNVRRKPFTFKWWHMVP

[2] = target: Protein-arginine deiminase type-1 (Homo sapiens) (UniProt Q9ULC6); conditions: recombinant PAD1-3, post-dialysis BAEE citrulline colorimetric; PAD1; at 100 µM; active compounds read low
Sequence of Protein-arginine deiminase type-1 (Homo sapiens) (Q9ULC6 whole entry, looked up): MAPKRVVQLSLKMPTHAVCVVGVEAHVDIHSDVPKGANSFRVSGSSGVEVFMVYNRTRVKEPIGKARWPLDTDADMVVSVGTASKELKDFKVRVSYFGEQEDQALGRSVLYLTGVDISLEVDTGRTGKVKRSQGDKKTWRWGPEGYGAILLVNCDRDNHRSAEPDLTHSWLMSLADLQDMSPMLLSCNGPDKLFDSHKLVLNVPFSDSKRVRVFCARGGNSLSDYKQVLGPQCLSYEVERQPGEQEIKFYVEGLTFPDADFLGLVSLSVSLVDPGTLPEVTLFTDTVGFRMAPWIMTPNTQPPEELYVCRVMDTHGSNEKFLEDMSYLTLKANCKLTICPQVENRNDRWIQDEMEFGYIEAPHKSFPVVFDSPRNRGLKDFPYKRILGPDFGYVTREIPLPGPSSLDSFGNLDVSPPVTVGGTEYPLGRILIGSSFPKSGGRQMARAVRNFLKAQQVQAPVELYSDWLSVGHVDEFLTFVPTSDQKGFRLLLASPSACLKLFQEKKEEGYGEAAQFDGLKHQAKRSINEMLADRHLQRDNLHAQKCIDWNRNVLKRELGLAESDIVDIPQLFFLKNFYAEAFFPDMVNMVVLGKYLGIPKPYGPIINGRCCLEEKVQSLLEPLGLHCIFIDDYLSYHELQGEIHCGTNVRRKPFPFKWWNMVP

[3] = target: Protein-arginine deiminase type-3 (Homo sapiens) (UniProt Q9ULW8); conditions: recombinant PAD1-3, post-dialysis BAEE citrulline colorimetric; PAD3; at 100 µM; active compounds read low
Sequence of Protein-arginine deiminase type-3 (Homo sapiens) (Q9ULW8 whole entry, looked up): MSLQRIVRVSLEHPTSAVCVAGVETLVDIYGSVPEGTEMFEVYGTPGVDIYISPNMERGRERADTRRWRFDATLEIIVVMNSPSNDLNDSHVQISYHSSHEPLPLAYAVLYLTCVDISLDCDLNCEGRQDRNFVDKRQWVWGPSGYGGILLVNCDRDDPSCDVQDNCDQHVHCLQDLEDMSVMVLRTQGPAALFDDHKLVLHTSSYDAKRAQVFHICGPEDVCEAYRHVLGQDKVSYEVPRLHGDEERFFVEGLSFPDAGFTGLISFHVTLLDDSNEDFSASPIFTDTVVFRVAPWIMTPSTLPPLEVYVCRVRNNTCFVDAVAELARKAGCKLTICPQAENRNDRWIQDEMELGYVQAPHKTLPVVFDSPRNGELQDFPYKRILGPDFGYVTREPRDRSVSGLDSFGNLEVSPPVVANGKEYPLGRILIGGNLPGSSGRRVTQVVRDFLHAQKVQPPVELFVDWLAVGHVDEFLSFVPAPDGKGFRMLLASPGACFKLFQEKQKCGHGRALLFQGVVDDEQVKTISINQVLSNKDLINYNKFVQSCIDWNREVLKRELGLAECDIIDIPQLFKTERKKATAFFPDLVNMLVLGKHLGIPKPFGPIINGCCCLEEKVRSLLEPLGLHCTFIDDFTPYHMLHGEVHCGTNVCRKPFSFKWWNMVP

Measured: residual activity after dialysis

NC1=CC(=O)c2ccc(-c3cccc(C(=O)O)n3)nc2C1=O
active: [1] 5.3% | [2] 10.2% | [3] 1.2%
